Where a name gives a salt, the structure may show the parent alone. Read-outs that look alike come from different tables or passages of the source.
Test system: iCell cardiomyocytes (human iPSC-derived cardiomyocytes)
Assay: Intracellular Ca2+ flux / beating parameters in iCell cardiomyocytes (FLIPR tetra), 90 min or 24 h
Assay type: cell-based
Settings: Homo sapiens, Cardiomyocyte, 0.00 µM = 100.00; for activity at 0.1 µM: 0.10 µM
Outline: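 Gelatin-plated iCell cardiomyocytes (5,000/well) were dye-loaded for 2 h at 37 °C, then exposed for 90 min or 24 h to PCBs/metabolites (5× plates at 0.05–500 µM; 0.5% DMSO final) in triplicate. Ca2+ flux was read for 100 s at 8 Hz and 37 °C. Peak height, frequency, spacing CV and decay/rise ratio were vehicle-normalized and fitted with a four-parameter logistic model, with POD set at 1 SD of vehicle.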

[1] = 1.5 h, read-out: cm.amp.avg.90min
[2] = 1.5 h, read-out: cm.amp.cv.90min
[3] = 1.5 h, read-out: cm.decay.rise.90min
[4] = 1.5 h, read-out: cm.spacing.cv.90min
[5] = 24 h, read-out: cm.amp.avg.24hrs
[6] = 24 h, read-out: cm.amp.cv.24hrs
[7] = 24 h, read-out: cm.decay.rise.24hrs
[8] = 24 h, read-out: cm.spacing.cv.24hrs

In the case of `O=S(=O)(O)Oc1cccc(-c2ccc(Cl)cc2)c1` [3'-yl PCB 3 sulfate], the activity at 0.01 µM [1] was 106%, the activity at 0.01 µM [2] was 121% and the activity at 0.01 µM (1.5 h, read-out: cm.bpm.90min) was 96.5%. It also gave an activity at 0.01 µM [3] of 95.8%, an activity at 0.01 µM [4] of 108% and an activity at 0.1 µM [1] of 106%. It also gave an activity at 0.1 µM [2] of 103%, an activity at 0.1 µM (1.5 h, read-out: cm.bpm.90min) of 100% and an activity at 0.1 µM [3] of 99.3%. The activity at 0.1 µM [4] was 110%, the activity at 1 µM [1] was 111% and the activity at 1 µM [2] was 84.7%. The activity at 1 µM (1.5 h, read-out: cm.bpm.90min) was 99.1%, the activity at 1 µM [3] was 96.2% and the activity at 1 µM [4] was 94.2%. For the same compound, the activity at 10 µM [1] was 109%, the activity at 10 µM [2] was 88.3% and the activity at 10 µM (1.5 h, read-out: cm.bpm.90min) was 100%. It also gave an activity at 10 µM [3] of 95.3%, an activity at 10 µM [4] of 94.3% and an activity at 100 µM [1] of 109%. It also gave an activity at 100 µM [2] of 86.7%, an activity at 100 µM (1.5 h, read-out: cm.bpm.90min) of 91.5% and an activity at 100 µM [3] of 99.4%. It also gave an activity at 100 µM [4] of 107%, an activity at 0.01 µM [5] of 79% and an activity at 0.01 µM [6] of 31.6%. It also gave an activity at 0.01 µM (24 h, read-out: cm.bpm.24hrs) of 52.5%, an activity at 0.01 µM [7] of 45.2% and an activity at 0.01 µM [8] of 48.7%. The activity at 0.1 µM [5] was 60.9%, the activity at 0.1 µM [6] was 151% and the activity at 0.1 µM (24 h, read-out: cm.bpm.24hrs) was 102%. The activity at 0.1 µM [7] was 90.7%, the activity at 0.1 µM [8] was 98.6% and the activity at 1 µM [5] was 86.6%. It also gave an activity at 1 µM [6] of 96.4%, an activity at 1 µM (24 h, read-out: cm.bpm.24hrs) of 89.7% and an activity at 1 µM [7] of 117%. The activity at 1 µM [8] was 96.2%, the activity at 10 µM [5] was 75% and the activity at 10 µM [6] was 122%. It also gave an activity at 10 µM (24 h, read-out: cm.bpm.24hrs) of 101%, an activity at 10 µM [7] of 98.6% and an activity at 10 µM [8] of 93.8%. The activity at 100 µM [5] was 85%, the activity at 100 µM [6] was 91.8% and the activity at 100 µM (24 h, read-out: cm.bpm.24hrs) was 92.6%. The activity at 100 µM [7] was 99% and the activity at 100 µM [8] was 87.7%.

Source: paper PMC7377239, “Cardiovascular Effects of Polychlorinated Biphenyls and Their Major Metabolites” (Environmental Health Perspectives, 2020)
